Reference: patent US20140194361A1, “Vault Agents for Treating Chronic Kidney Disease” (priority 2010, published 2014)
Entries after “also recorded” stand apart in the source; their conditions may differ. No end group written: not given here.

Columns and labels:
[1] = tested on: extracellular matrix and signaling proteins of DN; assay: expression of extracellular matrix and signaling proteins of DN in cells (immunoblotting); assay type: cell-based; conditions: for expression of extracellular matrix and signaling proteins of DN: serum-starved 48 h, treated 48 h, vs RGE/CRGE peptides
Description: Cells were serum-starved for 48 h and then untreated or treated with or without the unmodified RGD/RGE and modified CRGD/CRGE peptide for 48 h.

[2] = tested on: type 2 diabetic db/db mice; assay: prevention of progression of early DN in type 2 diabetic db/db mice; assay type: in vivo
Text: There was no change in blood pressure or plasma glucose in either the diabetic or non-diabetic animals.
There was no change in creatinine clearance in the cyclic-GRGESP-control peptide treated diabetic animals
In addition, glomerular volume measured by fractional volume of expansion by electron microscopy was normalized, p<0.05 after 12 weeks of treatment.
(§1) We investigated the ability of cyclic GRGDSP vs. GRGESP in a pilot study to prevent accumulation of glomerular lesions in early DN in 20 week old diabetic type 2 db/db vs non-diabetic db/m and diabetic type 1 Ins2Akita+ vs. non-diabetic Ins2+/+ mice with GRGESP and […] and observed up to 52% reduction in albuminuria in the type 2 diabetic mice (FIGS. 1-2) and ˜70% reduction in albuminuria in the type 1 diabetic mice (FIG. 6).

[3] = tested on: aged type 2 diabetic db/db mice; assay: regression of established DN in aged type 2 diabetic db/db mice; assay type: in vivo
[4] = tested on: type 1 diabetic Ins2Akita/+ mice; assay: prevention of progression of DN in type 1 diabetic Ins2Akita/+ mice; assay type: in vivo
Description: as §1

integrin = assay: experimentally verified RGD inhibitors blocking fibronectin adhesion to integrin
Text: Preferably, the synthetic analog inhibitors should have higher affinity to the integrin than the RGD loop of fibronectin. […] These two cyclic peptides were also used as reference structures to construct new inhibitors.
Combining the experimental results with the data obtained from our calculations we were able to predict the efficiency of the various inhibitors and to determine which structure is the most favorable fragment with regard to integrin binding energy.

[5] = 2400 μg/kg, after 4, 8 and 12 weeks of treatment
[6] = type 2 and type 1 diabetic mice, 400-2400 μg/kg

## CGRGDSP (also: cyclic peptide, ring closure not given here) [cyclic GRGDSP peptide with an added cysteine linker (free cysteine residue)]
[1]; kinetic studies and immunoblotting
  integrin-mediated cellular signaling by TGF-β, AKT and STAT3: inhibition
[1]
  expression of extracellular matrix and signaling proteins of DN: significantly reduced

## GRGDSP [cyclic-GRGDSP]
[2]; [5]
  amelioration of albumin excretion rate: up to 52%
[2]; after 12 weeks of treatment
  glomerular extracellular matrix expansion (periodic acid Schiff staining): prevented glomerular extracellular matrix expansion
  glomerular volume (fractional volume of expansion by electron microscopy): normalized
[2]; control type 2 diabetic animals, 2400 μg/kg
  albumin excretion rate in control animals: did not alter
[2]; db/db vs db/m mice, 400-2400 μg/kg, after 4 weeks of treatment, vs cyclic-GRGESP control
  albumin excretion rate: ameliorating albumin excretion rate in a dose dependent manner
[2]; [6]
  DN signaling proteins by Western blot: significant reduction
  glomerular expression extracellular matrix by Periodic Acid Schiff and electron microscopy: significant reduction
[2]; type 2 diabetic mice, 400-2400 μg/kg
  reduction in albuminuria: up to 52%
[1]
  expression of extracellular matrix and signaling proteins of DN: significantly reduced
[3]; 21-week-old db/db mice, 2400-4800 μg/kg, 4 weeks i.p.
  reduction in albuminuria: up to 71%
[3]; 2400-4800 μg/kg, 4 weeks i.p.
  expression of fibronectin, collagen I, collagen IV, TGF-β, ERK/MAPK and Nox4 (Western blot of kidney cortical tissues): reduced expression
  glomerulosclerosis index (Periodic Schiff stained kidney section): significant reduction
  mesangial expansion: reduced mesangial expansion
[3]; 3600 and 4800 μg/kg, 4 weeks intraperitoneal, dose-dependent
  reduction of albumin excretion rate: up to 71%
[3]; 3600 and 4800 μg/kg, 4 weeks, dose-dependent
  glomerular extracellular matrix proteins (fibronectin, collagen I and collagen IV): reduced glomerular extracellular matrix proteins
[3]; 3600 and 4800 μg/kg, dose-dependent
  expression of known signaling molecules of DN: reduced the expression
[4]; [5]
  albuminuria measured as albumin-to-creatinine ratio: ameliorated albuminuria
[4]; after 12 weeks of treatment
  glomerular expression of extracellular matrix proteins (fibronectin, collagen I and collagen IV): reduced glomerular expression of extracellular matrix proteins
[4]; type 1 diabetic mice, 400-2400 μg/kg
  reduction in albuminuria: ~70%

## cyc-RGDSPCG
integrin
  efficiency as inhibitor (experimentally verified): efficient inhibitors

## cyc-RGDSPG
integrin
  efficiency as inhibitor (experimentally verified): successful candidate of inhibitors; also recorded: efficient inhibitors

## cyc-RGDSPSG (cyclised or stapled)
integrin
  efficiency as inhibitor (experimentally verified): efficient inhibitors
